These results are taken from US4172941A, “7-[2-[ω-(1,3-Dit hiolan-2-imino)substituted]-acetylamino]cephalosporanic acid derivatives” (Richardson-Merrell Inc., priority 1978, dated 1979).

As a reminder, the ED50 is the dose at which the effect has come halfway, by size or by number of responders. A word on the MIC: it is the lowest concentration that inhibits growth of the organism. A low value points to greater potency.

The structures appear in SMILES notation. Converted amounts (≈) assume the structure as drawn.

For assay [1], the system named is Streptococcus pyogenes. The experiment in a line: in vivo protection of mice challenged with a fatal bacterial infection. As to conditions: sc, subcutaneous, 1 and 4 hours after challenge, dose per treatment protecting fifty percent. The protocol: (§1) The following example illustrates the in vivo activity of the compounds of this invention.
(§2) Several groups of 10 mice are challenged with a fatal bacterial infection. Various dose levels of the test compound are administered orally or subcutaneously to separate groups of these animals 1 and 4 hours after challenge. After three of four days, depending upon the test organism, the number of survivors are recorded at each dose level and the dose required per treatment to protect fifty percent of the infected mice (ED50) is calculated by the method described by Reed and Muench, Amer. J. Hyg. 27, 493-497 (1938).

In assay [2] the test system is Staphylococcus aureus. The experiment in a line: in vitro minimal inhibitory concentration, two-fold serial dilutions in trypticase soy broth. The format is cell-based. As to conditions: 24 hours at 37° C. The protocol:
(§3) The following example illustrates the in vitro activity of the compounds of this invention.
(§4) Two-fold serial dilutions of the test compounds are made in trypticase soy broth. A series of tubes of broth containing different concentrations of the test compounds are inoculated with the particular bacterial culture used for in vitro activity. The inoculated tubes are examined for the inhibition of bacterial growth after 24 hours of incubation at 37° C. The following table summarizes the minimal inhibitory concentration (MIC) for various bacterial test cultures using the following compounds: […]

Assay [3] deals with Escherichia coli. The description is as above. The format is cell-based. The following applies: 24 hours at 37° C. The protocol: as §3, §4
The subject of assay [4] is Streptococcus pyogenes. The assay is described as above. As to conditions: 24 hours at 37° C. The format is cell-based. The protocol: as §3, §4
Assay [5] relates to Diplococcus pneumonae. Described as above. In kind it is cell-based. As to conditions: 24 hours at 37° C. The protocol: as §3, §4
Assay [6] deals with Salmonella schottmuelleri. The assay is described as above. In kind it is cell-based. As to conditions: 24 hours at 37° C. The method, then: as §3, §4
Assay [7] deals with Diplococcus pneumoniae. The experiment in a line: in vivo protection of mice challenged with a fatal bacterial infection. The following applies: Streptococcus pneumoniae, 1 and 4 hours after challenge, dose per treatment protecting fifty percent. The protocol:
as §1, §2

For assay [8], the system named is Salmonella schotmuelleri. The assay is described as above. As to conditions: sc, subcutaneous, 1 and 4 hours after challenge, dose per treatment protecting fifty percent. The method, then: as §1, §2

As for `CC(=O)OCC1=C(C(=O)O)N2C(=O)C(NC(=O)C(O)c3ccc(N=C4SCCS4)cc3)C2SC1` (stereo not drawn) [Compound D, 7-[2-[p-(1,3-dithiolan-2-imino)phenyl]-2-hydroxyacetylamino]cephalosporanic acid], in assay [1], the ED50 came to 2.2 mg/kg. For the same compound, the MIC in assay [2] was 0.4 µg/mL (≈ 0.764 µM); in assay [3] it was 200 µg/mL (≈ 382 µM); in assay [4] it was less than 0.05 µg/mL; in assay [5], less than 0.05 µg/mL; in assay [6], 50 µg/mL (≈ 95.5 µM).

On to `CC1=C(C(=O)O)N2C(=O)C(NC(=O)C(N)c3ccc(N=C4SCCS4)cc3)C2SC1` (stereo not drawn) [Compound C, 7-[2-amino-2-[p-(1,3-dithiolan-2-imino)phenyl]acetylamino]desacetoxycephalosporanic acid], for which the ED50 in assay [7] (po, per os) was 4.1 mg/kg; in assay [7] (sc, subcutaneous), 5 mg/kg; in assay [1] it was 0.5 mg/kg; in assay [8] it was more than 100 mg/kg. The MIC is 3.1 µg/mL (≈ 6.67 µM) in assay [2]; more than 100 µg/mL in assay [3]; not above 0.05 µg/mL in assay [4]; not above 0.05 µg/mL in assay [5]; more than 100 µg/mL in assay [6].

In turn, `CC1=C(C(=O)O)N2C(=O)C(NC(=O)C(N=C3SCCS3)c3ccccc3)C2SC1` (stereo not drawn) [Compound B, 7-[2-(1,3-dithiolan-2-imino)-2-phenylacetylamino]desacetoxycephalosporanic acid] showed an ED50 in assay [1] of 48 mg/kg. The MIC in assay [2] was 25 µg/mL (≈ 55.6 µM); in assay [3], more than 100 µg/mL; in assay [4] it was 6.2 µg/mL (≈ 13.8 µM); in assay [5], 12.5 µg/mL (≈ 27.8 µM); in assay [6], more than 100 µg/mL.

`CC(=O)OCC1=C(C(=O)O)N2C(=O)C(NC(=O)CN=C3SCCS3)C2SC1` (stereo not drawn) [Compound A, 7-[2-(1,3-dithiolan-2-imino)acetylamino]cephalosporanic acid] gave an ED50 in assay [1] of 15.3 mg/kg. In addition, the MIC worked out at 0.4 µg/mL (≈ 0.927 µM) in assay [2]; 50 µg/mL (≈ 116 µM) in assay [3]; 0.4 µg/mL (≈ 0.927 µM) in assay [4]; 0.1 µg/mL (≈ 0.232 µM) in assay [5]; 12.5 µg/mL (≈ 29 µM) in assay [6].
